These results are taken from article PMC3479105, “K-134, a Phosphodiesterase 3 Inhibitor, Prevents Brain Damage by Inhibiting Thrombus Formation in a Rat Cerebral Infarction Model” (PLoS ONE, 2012).

Like-named read-outs stand apart in the source and are kept apart here.

Series [1] is described as follows: Electron spin resonance (ESR) radical scavenging. Particulars: ESR experiments, data not shown. From the text: In the photothrombotic cerebral infarction model, photoactivation of rose bengal by illumination with green light results in reactive oxygen intermediates (predominantly singlet oxygen and superoxide). […] Therefore, we concluded that the observed inhibitory effects of K-134 on photothrombosis in this model are relevant to its antiplatelet activity but not radical scavenging activity.

Series [2] is described as follows: Pharmacokinetics of cilostazol and its active metabolites in rats. It counts as in vivo, rat. Particulars: single oral cilostazol 300 mg/kg, non-fasting male SD rats, n = 3; parent and metabolites. Here is the method: Pharmacokinetic variables (Cmax, AUC, Tmax and T1/2) were calculated from the plasma drug concentration-time curve. Cilostazol was orally administered to rats under non-fasting conditions at a single dose of 300 mg/kg to determine the concentration-time profile in serum (n = 3). Values are means (± SEM). […]

Details of series [3]: method as in PMID 10702882. The following applies: human healthy male, single dose 100 mg of cilostazol, cited from earlier work.
The next series deals with platelets. On the set-up: method as in earlier work. Particulars: cited from earlier work.
Setting [4] is: converted from µg/L, read-out: Cmax.

Usually Cmax stands for the highest concentration seen after dosing. As usually defined, the Tmax is the time at which the peak concentration occurs. As for `O=c1ccc2cc(OCCCCc3nnnn3C3CCCCC3)ccc2[nH]1` [OPC-13015], the “scavenging activities against singlet oxygen and superoxide anion radical” value in series [1] is “did not show scavenging activities”. Moreover, in series [2], the AUC0-24h worked out at 18.3 µM·h, the Cmax was 1400 nM, the T1/2 is recorded as 6.8 h and the Tmax was 3.2 h. Also, the Cmax in series [3] (setting [4]) was 330 nM. Besides, the “AUC0–72 h” value in series [3] (converted from µg/L·h) is 6.59 µM·h. Also, in series [3], the “AUC0–72 h” value is around 2423 ng·h/mL and the Cmax was around 122 ng/mL. Moreover, the “antiplatelet activity, times more potent than cilostazol” value in the series with platelets is listed as 3 times.

For the compound `O=C1CCc2cc(OCCCCc3nnnn3C3CCC(O)CC3)ccc2N1` (stereo not drawn) [OPC-13213], in series [2], the AUC0-24h worked out at 127.3 µM·h, the Cmax was 9100 nM and the T1/2 came to 6.1 h. For the same compound, the highest concentration (Cmax) in series [3] (setting [4]) was 170 nM. Also, the “AUC0–72 h” value in series [3] (converted from µg/L·h) is given as 1.60 µM·h. For the same compound, in series [3], the “AUC0–72 h” value was around 617 ng·h/mL and the Cmax was around 64 ng/mL. Besides, in the series on platelets, the “antiplatelet activity, times less potent than cilostazol” value is listed as 3 times.
